According to patent US9216181B2 (Southwest Research Institute, priority 2011, dated 2015):

Assays:
[1] = tested on: BMP-2; test: Real time PCR of BMP-2 gene expression in human MSC (Cells-to-Ct); assay type: cell-based; details: BMP-2 mRNA, hMSC, 5-10 μM, 24 hours, vs untreated; positive control compounds (Table 1)
[2] = tested on: BMP2; test: Quantitative PCR (TaqMan, ΔΔCt) of BMP2 in human mesenchymal stem cells; assay type: cell-based; details: Homo sapiens, Mesenchymal stem cells; BMP2 mRNA, hMSC, 10 μM, vs untreated, 18S reference; positive control compounds (Table 1); read-out: q-PCR Fold increase
[3] = tested on: BMP-2; test: BMP-2 fold change of JHU library compounds, confirmed by qPCR; assay type: cell-based, human; details: non-treated = 1.00
Source text: To further verify the technique, a 2T3 mouse pre-osteoblast cell line derived from calvaria courtesy of Dr. Steve Harris, UTHSCSA, was utilized to visually screen the compounds of the BIOMOL library and JHU libraries, purchased from John Hopkins University including 2387 compounds (solution in wells). Specifically, Murine 2T3 were thawed from one frozen cryovial and re-seeded into two T-75 tissue culture flasks grown in Alpha MEM with 10% FBS, Glutamine, and Pen/Strip antibiotics. Cells were incubated in a humidified 37° C. under 5% CO2 for 48 hours or when cells reached 80% confluence. After reaching confluency, the 2T3 were trypsinized and resuspended in pre-warm growth media to a cell density of 5×10^4 cells/mL. Approximately 100 uL of cell suspension was seeded to a 96 well plate to give a final 5,000 cells per well. Plate was incubated overnight at 37° C. and spent media was aspirated and replace with 100 uL of growth media with 5-10 uM of presumptive drug compounds. A set of controls were untreated and treated with 10 uM of Lovastatin to be used as a visual reference morphological screening.
Human mesenchymal stem cells (LONZA, Catalog PT2501) were maintained in Mesenchymal stem cells basal media (MSCBM CAT#PT-3238). Early passage cells were plated in triplicate at 2×10^4 cells/cm^2 using six well tissue culture plates and grown in humidified 5% CO2 at 37° C. for 24 hours. Spent media was replaced by assay media of drugs to be tested in same media as above at 10 μM final concentration. Untreated cells were used as the control group. […] RNA concentration and integrity was assessed by absorbance 260/280 and electrophoresis in 1% Agarose with formaldehyde loading dye. For TaqMan gene expression, cDNA was synthesized from 2 μg of total RNA using the High Capacity cDNA Reverse Transcription Kit (Applied Biosystems, Cat. 4368814). The resulting cDNA were diluted 1:100 for TaqMan and amplified by real-time quantitative PCR. […] A cocktail of universal master mix (Applied Biosystems, 4369016) were prepared individually for both set of primers which contained Taq Polymerase, dNTPs, and buffer. Template cDNA's were added separately to respective individual wells in triplicate samples. The PCR were performed on StepOne Plus Real Time System instrument (Applied Biosystems). The amplification program consisted of 1 cycle of 95° C. with 10 minute hold (hot start) followed by 50 cycles of 95° C. with 15 second annealing hold and 1 minute 60° C. specified acquisition hold. […] Change in gene expression was determined by the expression ΔΔCt relative method.
Included in the tables is the target or common medical use for each compounds.

[4] = tested on: C3H10T1/2 cells; test: Visual observation of morphological differentiation of C3H10T1/2 MSC; assay type: cell-based, mouse; details: enhanced medium withdrawn before addition
Method: The C3H10T1/2 cells were grown in an enhanced growth medium of BGjb (Irvine Scientific, Santa Ana, Calif.).

Q: Which results are given for `CC[C@H](C)C(=O)O[C@H]1C[C@@H](C)C=C2C=C[C@H](C)[C@H](CC[C@@H]3C[C@@H](O)CC(=O)O3)[C@H]21` [Lovastatin]?
A: RT PCR Fold increase [1]: 59.9 fold; fold induction at 10 µM [2]: 10.7; fold induction at 10 µM ([3]; Homo sapiens, read-out: Fold change (BMP-2), control compounds at 10 μM): 18; Fold change (BMP-2) ([3]; JHU library compounds): 182.00 fold; morphological changes by visual observation [4]: generated more elongated looking cells with slowed cell proliferation
